We go through one compound from patent publication US20110002993A1, “FILM COATED TABLETS CONTAINING DROSPIRENONE AS ACTIVE AGENT AND A METHOD FOR THE PREPARATION THEREOF” (RICHTER GEDEON NYRT., priority 2007, published 2011).

The nature of this data set: solubility of drospirenone in water. The format is physicochemical. An excerpt:
For dissolution of such a large amount of active agent a large amount of pharmaceutically and environmentally acceptable solvent is needed. […] In the preparation process according to the invention the solvent is ethanol. Ethanol is the most advantageous solvent from the environmental and safety point of views.

For `C[C@]12CCC(=O)C=C1[C@@H]1C[C@@H]1[C@H]1[C@@H]3[C@@H]4C[C@@H]4[C@@]4(CCC(=O)O4)[C@@]3(C)CC[C@@H]12` [drospirenone, 6β,7β;15β,16β-dimethylene-3-oxo-17α-pregn-4-en-21,17-carbolactone], the solubility in water result was “substantially insoluble in water”.
